Measured values from ChEMBL document CHEMBL1201862, “PubChem BioAssay data set” (2004).
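In this assay, cells in 96-well plates receive the compound at five concentrations for 48 hours. Endpoints are linearly interpolated between the surrounding concentrations. At the GI50, growth is halved.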 Activity calls are given as the source filed them. Cut-off read from the data, not from the text of the source: active = GI50 up to about 1.1 µM and inactive = higher. Square brackets hold non-standard residues; d marks the D form. Peptide text beside a SMILES is read from it. Phe(4-Cl) = N[CH](Cc1ccc(Cl)cc1)C(=O)O; 2Nal = N[CH](Cc1ccc2ccccc2c1)C(=O)O; 3Pal = N[CH](Cc1cccnc1)C(=O)O

What was measured:
Assay in all cases: NCI-60 cell line screen, 48 h
OVCAR-5 = system: OVCAR-5
SF-268 = system: SF-268
CCRF-CEM = system: CCRF-CEM
NCI-H226 = system: NCI-H226
UACC-257 = system: UACC-257
SNB-19 = system: SNB-19
U-251 = system: U-251
UO-31 = system: UO-31
IGROV-1 = system: IGROV-1
OVCAR-8 = system: OVCAR-8
HOP-62 = system: HOP-62
BT-549 = system: BT-549
MDA-N = system: MDA-N
HT-29 = system: HT-29
M14 = system: M14
T47D = system: T47D
786-0 = system: 786-0
SR = system: SR
SNB-75 = system: SNB-75

SMILES	GI50 (OVCAR-5)	GI50 (SF-268)	GI50 (CCRF-CEM)	GI50 (NCI-H226)	GI50 (UACC-257)	GI50 (SNB-19)	GI50 (U-251)	GI50 (UO-31)	GI50 (IGROV-1)	GI50 (OVCAR-8)	GI50 (HOP-62)	GI50 (BT-549)	GI50 (MDA-N)	GI50 (HT-29)	GI50 (M14)	GI50 (T47D)	GI50 (786-0)	GI50 (SR)	GI50 (SNB-75)
CC1(C)CCC[C@]2(C)[C@@H](C=O)C(C=O)=CC[C@@H]12 [POLYGODIAL]	16.4 µM (inactive)	15.3 µM (inactive)	20.3 µM (inactive)	20 µM (inactive)	17.1 µM (inactive)	18.2 µM (inactive)	19 µM (inactive)	16.4 µM (inactive)	19 µM (inactive)	16.4 µM (inactive)	30.6 µM (inactive)	25.9 µM (inactive)	13.6 µM (inactive)	16.4 µM (inactive)	17.5 µM (inactive)	19.8 µM (inactive)	37 µM (inactive)	18.2 µM (inactive)	–
C=CC[C@H]1[C@H](O[Si](C)(C)C(C)(C)C)C=CC(=O)[C@@H]1CC(=O)N(Cc1ccccc1)Cc1ccccc1	32.4 µM (inactive)	6.55 µM (inactive)	7.85 µM (inactive)	11.7 µM (inactive)	11.5 µM (inactive)	29.6 µM (inactive)	19.3 µM (inactive)	11.7 µM (inactive)	20.8 µM (inactive)	16.1 µM (inactive)	25.6 µM (inactive)	16.9 µM (inactive)	16.4 µM (inactive)	6.35 µM (inactive)	18.1 µM (inactive)	3.3 µM (inactive)	17.5 µM (inactive)	9.29 µM (inactive)	–
CC(=O)Oc1ccc(C2SCc3nc4ccccc4n32)cc1 (stereo not drawn)	69.5 µM (inactive)	21 µM (inactive)	26.5 µM (inactive)	–	33.5 µM (inactive)	50.6 µM (inactive)	25.6 µM (inactive)	8.57 µM (inactive)	30.7 µM (inactive)	18.7 µM (inactive)	41 µM (inactive)	6.4 µM (inactive)	14.8 µM (inactive)	23.3 µM (inactive)	48.6 µM (inactive)	18.3 µM (inactive)	39.4 µM (inactive)	15.6 µM (inactive)	19.9 µM (inactive)
O=[N+]([O-])/C(C(Cl)=C(Cl)Cl)=C(\N1CCOCC1)n1nnc2ccccc21	21.1 µM (inactive)	18.3 µM (inactive)	–	26.8 µM (inactive)	20.7 µM (inactive)	14.3 µM (inactive)	16.7 µM (inactive)	17.8 µM (inactive)	–	–	18.8 µM (inactive)	19 µM (inactive)	19.6 µM (inactive)	–	17.2 µM (inactive)	16.9 µM (inactive)	22 µM (inactive)	–	17.5 µM (inactive)
CCCCCC(/C=C/[C@@H]1[C@@H](C(O)CCCCCC(=O)OC)C(=O)C[C@H]1O[Si](C)(C)C(C)(C)C)OCOCCOC (stereo partly drawn)	21.1 µM (inactive)	14 µM (inactive)	2.62 µM (inactive)	18.2 µM (inactive)	7.85 µM (inactive)	15.3 µM (inactive)	7.26 µM (inactive)	15.6 µM (inactive)	6.28 µM (inactive)	16.5 µM (inactive)	16.9 µM (inactive)	9.06 µM (inactive)	8.51 µM (inactive)	6.7 µM (inactive)	13.8 µM (inactive)	21.4 µM (inactive)	15.6 µM (inactive)	–	10.4 µM (inactive)
O=c1[nH]c2cc3[nH]c4ncccc4c(=O)c3cc2[nH]1	> 10 µM (inactive)	> 10 µM (inactive)	> 10 µM (inactive)	> 10 µM (inactive)	> 10 µM (inactive)	> 10 µM (inactive)	> 10 µM (inactive)	–	> 10 µM (inactive)	> 10 µM (inactive)	> 10 µM (inactive)	> 10 µM (inactive)	> 10 µM (inactive)	> 10 µM (inactive)	> 10 µM (inactive)	> 10 µM (inactive)	> 10 µM (inactive)	> 10 µM (inactive)	> 10 µM (inactive)
CC(=O)Oc1cc(C(F)(F)F)ccc1C(=O)OC1(C)OC(=O)c2ccc(C(F)(F)F)cc2O1 (stereo not drawn)	> 100 µM (inactive)	> 100 µM (inactive)	> 100 µM (inactive)	> 100 µM (inactive)	> 100 µM (inactive)	> 100 µM (inactive)	> 100 µM (inactive)	> 100 µM (inactive)	> 100 µM (inactive)	> 100 µM (inactive)	> 100 µM (inactive)	> 100 µM (inactive)	> 100 µM (inactive)	> 100 µM (inactive)	> 100 µM (inactive)	> 100 µM (inactive)	> 100 µM (inactive)	–	9.86 µM (inactive)
OCC1OC(OCC(O)C(O)C(O)C(/C=N/Nc2ccccc2)=N/Nc2ccccc2)C(O)C(O)C1O (stereo not drawn)	> 100 µM (inactive)	26 µM (inactive)	> 100 µM (inactive)	–	> 100 µM (inactive)	> 100 µM (inactive)	> 100 µM (inactive)	30.4 µM (inactive)	5.19 µM (inactive)	> 100 µM (inactive)	> 100 µM (inactive)	> 100 µM (inactive)	> 100 µM (inactive)	> 100 µM (inactive)	> 100 µM (inactive)	17 µM (inactive)	> 100 µM (inactive)	> 100 µM (inactive)	> 100 µM (inactive)
Cc1ccc(C2(O)CS/C(=N\C34CC5CC(CC(C5)C3)C4)N2C(P(=O)(O)O)P(=O)(O)O)cc1 (stereo not drawn)	82.8 µM (inactive)	> 100 µM (inactive)	–	> 100 µM (inactive)	–	82.2 µM (inactive)	38.6 µM (inactive)	> 100 µM (inactive)	> 100 µM (inactive)	86.7 µM (inactive)	49.1 µM (inactive)	> 100 µM (inactive)	42 µM (inactive)	> 100 µM (inactive)	> 100 µM (inactive)	80.2 µM (inactive)	> 100 µM (inactive)	29.2 µM (inactive)	38.6 µM (inactive)
CC[C@@H]1/C=C/C=C/C[C@H](C)[C@@H](O)[C@@H](C)C(=O)[C@H](C)[C@@H](O)[C@H](C)C(=O)[C@H](C)[C@@H](O)[C@H](C)/C=C/C(=O)O[C@H]2[C@@H](C)[C@@H](CC1)O[C@@]1(CC[C@@H](C)[C@@H](CC(C)O)O1)[C@@H]2C (stereo partly drawn)	3.63 µM (inactive)	6.98 µM (inactive)	1.75 µM (inactive)	–	< 0.0025 µM (active)	0.00491 µM (active)	0.00361 µM (active)	–	4.48 µM (inactive)	0.00464 µM (active)	4.38 µM (inactive)	4.32 µM (inactive)	3.06 µM (inactive)	2.94 µM (inactive)	2.47 µM (inactive)	< 0.0025 µM (active)	5.9 µM (inactive)	3.01 µM (inactive)	0.253 µM (active)
O=C(O)CSC(CC(=O)c1ccc(Cl)cc1)c1ccc(Cl)cc1 (stereo not drawn)	> 100 µM (inactive)	25.1 µM (inactive)	8.71 µM (inactive)	–	21.2 µM (inactive)	42 µM (inactive)	29 µM (inactive)	34.6 µM (inactive)	19.7 µM (inactive)	22.3 µM (inactive)	32.9 µM (inactive)	29.9 µM (inactive)	20.6 µM (inactive)	22.1 µM (inactive)	42.1 µM (inactive)	29.3 µM (inactive)	21.8 µM (inactive)	2.36 µM (inactive)	49.8 µM (inactive)
Cc1ccc(C2SC(=N)Nc3c2c(C)nn3C(=O)c2ccncc2)cc1 (stereo not drawn)	> 10 µM (inactive)	> 10 µM (inactive)	> 10 µM (inactive)	> 10 µM (inactive)	> 10 µM (inactive)	> 10 µM (inactive)	> 10 µM (inactive)	–	> 10 µM (inactive)	> 10 µM (inactive)	> 10 µM (inactive)	> 10 µM (inactive)	> 10 µM (inactive)	> 10 µM (inactive)	> 10 µM (inactive)	> 10 µM (inactive)	> 10 µM (inactive)	> 10 µM (inactive)	> 10 µM (inactive)
CC(=O)NC(Cc1ccc2ccccc2c1)C(=O)NC(Cc1ccc(Cl)cc1)C(=O)NC(Cc1cccnc1)C(=O)NC(CO)C(=O)NC(Cc1ccc(O)cc1)C(=O)NC(CCCN=C(N)N)C(=O)NC(CC(C)C)C(=O)NC(CCCN=C(N)N)C(=O)N1CCCC1C(=O)NC(C)C(N)=O (stereo not drawn) (Ac-[2Nal][Phe(4-Cl)][3Pal]SYRLRPA-NH2; configuration not given here)	> 100 µM (inactive)	–	> 100 µM (inactive)	> 100 µM (inactive)	> 100 µM (inactive)	> 100 µM (inactive)	> 100 µM (inactive)	> 100 µM (inactive)	> 100 µM (inactive)	> 100 µM (inactive)	> 100 µM (inactive)	> 100 µM (inactive)	> 100 µM (inactive)	> 100 µM (inactive)	> 100 µM (inactive)	–	69.7 µM (inactive)	> 100 µM (inactive)	88.9 µM (inactive)
COC(=O)C(CC12CC3CC(CC(C3)C1)C2)NC(=O)C(N)CC(=O)O (stereo not drawn)	> 100 µM (inactive)	> 100 µM (inactive)	> 100 µM (inactive)	–	> 100 µM (inactive)	> 100 µM (inactive)	> 100 µM (inactive)	> 100 µM (inactive)	> 100 µM (inactive)	> 100 µM (inactive)	> 100 µM (inactive)	> 100 µM (inactive)	> 100 µM (inactive)	> 100 µM (inactive)	–	> 100 µM (inactive)	> 100 µM (inactive)	> 100 µM (inactive)	> 100 µM (inactive)
COc1nc(N)c(C#N)c(C#N)c1C#N	> 10 µM (inactive)	> 10 µM (inactive)	–	–	> 10 µM (inactive)	> 10 µM (inactive)	> 10 µM (inactive)	–	–	> 10 µM (inactive)	> 10 µM (inactive)	> 10 µM (inactive)	> 10 µM (inactive)	> 10 µM (inactive)	> 10 µM (inactive)	–	> 10 µM (inactive)	> 10 µM (inactive)	> 10 µM (inactive)
